We go through 10 molecules from ChEMBL document CHEMBL1201862, “PubChem BioAssay data set” (2004).

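Grown in 96-well plates, cells were treated for 48 hours with each compound at five concentrations. Insufficient inhibition: endpoint recorded as highest concentration tested. Abbreviation: GI50, concentration required for 50% inhibition of growth.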 Calls of active or inactive are those of the source. No stated cut-off is given here; in the data, active = GI50 up to about 1.1 µM and inactive = higher.

Holding throughout (assay): NCI anticancer screen, dose series, 48 h
Assay [1] deals with OVCAR-5.
Assay [2] deals with SK-MEL-2.
For assay [3], the system named is SF-295.
Assay [4] relates to NCI-H522.
The test system of assay [5] is NCI-H23.
The subject of assay [6] is KM12.
The subject of assay [7] is SR.
Assay [8] concerns HL-60.
The test system of assay [9] is Malme-3M.
Assay [10] deals with HCT-116.
Assay [11] has as its system OVCAR-3.
Assay [12] deals with RPMI-8226.
The test system of assay [13] is SNB-75.
Assay [14] relates to M14.
Assay [15] has as its system SF-268.
For assay [16], the system named is HCT-15.

For `CCCCCCCCCC1CC(=O)OC2=C1C(=O)CCC2` (centres undefined), the GI50 in assay [1], in [2], in assay [3], in assay [4], in assay [5] and in [6] was > 100 µM (inactive) each time. Further, the GI50 in assay [7], in assay [8], in [9], in assay [10], in assay [11] and in [12] was > 100 µM (inactive) in each case. In addition, the GI50 in assay [13], in [14] and in assay [15] was > 100 µM (inactive) throughout.

Turning to `CC(=O)c1ccc(NC(=O)/C(Cc2ccccn2)=N/NC(=O)C[N+](C)(C)C)cc1`, the GI50 in assay [16] was greater than 100 µM; in assay [1], > 100 µM (inactive); in [2], > 100 µM (inactive); in assay [3] it was > 100 µM (inactive); in assay [4], > 100 µM (inactive); in [5], > 100 µM (inactive). The GI50 in assay [6], in [7], in assay [8], in [9], in assay [10] and in [11] was > 100 µM (inactive) each time. Besides, the GI50 in assay [12], in assay [13], in [14] and in assay [15] was > 100 µM (inactive) each time.

Regarding `CC(C)OP(=O)(OC(C)C)/C(N)=N/Nc1ccc([N+](=O)[O-])cc1`, the GI50 in assay [16] is greater than 100 µM; in assay [1], > 100 µM (inactive); in assay [2] it was > 100 µM (inactive); in [4], 68.7 µM (inactive); in assay [5] it was 63 µM (inactive); in assay [6] it was > 100 µM (inactive). Further, the GI50 in assay [7] is > 100 µM (inactive); in assay [8] it was 58.3 µM (inactive); in [9], > 100 µM (inactive); in assay [10] it was 86.3 µM (inactive); in [11], > 100 µM (inactive); in assay [12], > 100 µM (inactive). For the same molecule, the GI50 was 81.7 µM (inactive) in assay [13], > 100 µM (inactive) in assay [14] and > 100 µM (inactive) in assay [15].

`[N-]=[N+]=NC1C2CC3C4CC5CC3[C@H](C2)C(C5)C41` (some centres undefined): the GI50 in assay [1], in [2], in assay [3], in [4], in assay [5] and in assay [6] was > 100 µM (inactive) throughout. Also, the GI50 in assay [7], in [9], in [10], in assay [11], in [12] and in assay [13] was > 100 µM (inactive) each time. Also, the GI50 in assay [14] and in assay [15] was > 100 µM (inactive) in each case.

On to `O=C(c1ccccc1)c1ccc2cccc(O)c2n1`, for which the GI50 was 23.6 µM in assay [16]; 60.8 µM (inactive) in assay [1]; 47.6 µM (inactive) in [2]; 18.7 µM (inactive) in assay [3]; 8.38 µM (inactive) in assay [4]; 22.6 µM (inactive) in assay [5]. Also, the GI50 in assay [6] is 74.5 µM (inactive); in assay [7], 15.4 µM (inactive); in [9] it was 36.1 µM (inactive); in assay [10] it was 6.14 µM (inactive); in assay [11], 50.8 µM (inactive); in assay [12] it was 10.6 µM (inactive). For the same molecule, the GI50 is 30.5 µM (inactive) in assay [13], 13.8 µM (inactive) in [14] and 27.5 µM (inactive) in [15].

As to `COc1ccc(-c2cn3ccsc3n2)cc1`, the GI50 in assay [16] is 39.6 µM; in assay [1] it was > 100 µM (inactive); in assay [2] it was > 100 µM (inactive); in [3], > 100 µM (inactive); in assay [4], 65.3 µM (inactive); in assay [5] it was > 100 µM (inactive). The GI50 is > 100 µM (inactive) in assay [6]; 15.9 µM (inactive) in assay [7]; 24.7 µM (inactive) in [8]; > 100 µM (inactive) in assay [9]; 45.4 µM (inactive) in assay [10]; > 100 µM (inactive) in [11]. Moreover, the GI50 in assay [12] was 22.3 µM (inactive); in [13], > 100 µM (inactive); in [14] it was > 100 µM (inactive); in assay [15], > 100 µM (inactive).

With `Cc1nn(C)c(=O)c2nn(-c3ccccc3)c(C)c12`, the GI50 in [16] is greater than 100 µM; in assay [1], > 100 µM (inactive); in assay [2], > 100 µM (inactive); in [3], > 100 µM (inactive); in assay [4] it was > 100 µM (inactive); in [5], > 100 µM (inactive). Also, the GI50 in [6], in [7], in assay [8], in [9], in assay [10] and in [11] was > 100 µM (inactive) each time. Moreover, the GI50 in assay [12], in assay [13], in [14] and in assay [15] was > 100 µM (inactive) in each case.

Regarding `NC(=O)C#CC#CC#CCO`, the GI50 is 1.8 µM in assay [16]; 18.9 µM (inactive) in assay [1]; 2.2 µM (inactive) in assay [2]; 3.94 µM (inactive) in assay [3]; 0.15 µM (active) in [4]; 2.12 µM (inactive) in assay [5]. In addition, the GI50 in assay [6] is 3.31 µM (inactive); in assay [7], 2.47 µM (inactive); in assay [8], 1.26 µM (inactive); in [9] it was 1.96 µM (inactive); in assay [10] it was 1.28 µM (inactive); in [11], 1.9 µM (inactive). The GI50 is 2.05 µM (inactive) in assay [12], 1.82 µM (inactive) in assay [13], 1.98 µM (inactive) in [14] and 2.21 µM (inactive) in assay [15].

For `CCCCOCN/C(N)=N/C#N`, the GI50 in assay [16] is 21.9 µM; in [1] it was > 100 µM (inactive); in assay [2], > 100 µM (inactive); in assay [3] it was > 100 µM (inactive); in assay [4], > 100 µM (inactive); in assay [5], > 100 µM (inactive). Also, the GI50 in assay [6] is 71.4 µM (inactive); in [7], 19.6 µM (inactive); in assay [8] it was > 100 µM (inactive); in [9], > 100 µM (inactive); in assay [10] it was > 100 µM (inactive); in [11], > 100 µM (inactive). Besides, the GI50 in assay [12], in assay [13], in assay [14] and in [15] was > 100 µM (inactive) in each case.

With `COC(=O)CCC(=O)C(C#N)c1ccc(Cl)cc1Cl` (centres undefined), the GI50 in [16] was greater than 100 µM; in [2], > 100 µM (inactive); in [3] it was > 100 µM (inactive); in assay [4] it was > 100 µM (inactive); in assay [5], > 100 µM (inactive); in assay [6], > 100 µM (inactive). Also, the GI50 in assay [7], in [8], in [9], in [10], in [11] and in [12] was > 100 µM (inactive) each time. Further, the GI50 in [13], in assay [14] and in assay [15] was > 100 µM (inactive) in each case.
